Assays:
human HM74a [1] = molecular target: T1, human HM74a (Homo sapiens, UniProt Q8TDS4); test: cAMP assay; format: cell-based; parameters: expressed in transfected cells; settings: CHO cells stably transfected with human HM74a; 5 μM forskolin; inhibition relative to DMSO controls
Protocol: CHO cells stably transfected with human HM74a were seeded at 7,500 cells/well in a 96-well plate in HAMS F12 medium with 10% FBS. The plate was incubated overnight at 37° C. and 5% CO2. The test compounds were prepared in a stimulation buffer containing 1×HANKS, 20 mM HEPES, 5 μM forskolin, and 0.25 mM IBMX. The media from the cell plate was removed before adding 30 μL of the test compounds. After 30 minute incubation at 37° C. and 5% CO2, the cAMP level was assayed using HitHunter cAMP XS assay kit (DiscoverX, CA). IC50 determinations were based on compound inhibition relative to DMSO controls.

human HM74a [2] = molecular target: T1, human HM74a; test: GTPγS recruitment assay; format: biochemical; parameters: expressed in transfected cells; host or cells: HEK293 (transient transfection; membranes); settings: membranes of HEK293 cells transfected with human HM74a and Gα0; 35S GTPγS
Protocol: Membranes were prepared from HEK293 cells transiently transfected with human HM74a and Gα0 protein. Assays were performed in 384-well format in a volume of 50 μL per assay point. Serial dilutions of compounds were prepared in the assay buffer (20 mM HEPES pH. 7.4, 100 mM NaCl, 10 mM MgCl2, 10 mg/L saponin and 10 μM GDP) and mixed with membranes (2 μg per assay point) and ^35S GTPγS (Amersham, 0.3 nM) in the assay buffer. The mixtures were incubated at room temperature for 30 mM and wheat germ agglutinin SPA beads (Amersham) (0.2 mg per assay point) in the assay buffer were added. After […] incubation with agitation, plates were centrifuged at 1500 g for 5 mM and bound ^35S GTPγS was determined by counting on a TopCount scintillation counter. […] For example, the compound of Example 1 has an EC50 of 80 nM in this assay.

mature adipocytes = test: Adipocyte lipolysis assay; format: cell-based; settings: glycerol in supernatant after overnight culture with IBMX (100 μM), relative to DMSO controls
Protocol: Preadipocytes purchased from Zen Bio were plated at 8.7×10 ^4 cells/well in 96-well plates, differentiated for 14 days and mature adipocytes assayed during days 15 through 21. Adipocyte maturation is assessed by the presence of rounded cells with large lipid droplets in the cytoplasm. Following maturation, cells were washed and incubated overnight with IBMX (100 μM) and various concentrations of compound diluted in assay buffer containing a final DMSO concentration of 0.1%. After overnight culture, the glycerol concentration in the supernatants was determined with the Lipolysis Assay Kit purchased from Zen-Bio. Absorbance at 540 nm is directly proportional to the glycerol concentration in the sample. IC50 determinations were based on compound inhibition relative to DMSO controls.

[3] = cited from earlier work

T1 sequence (Q8TDS4 whole entry): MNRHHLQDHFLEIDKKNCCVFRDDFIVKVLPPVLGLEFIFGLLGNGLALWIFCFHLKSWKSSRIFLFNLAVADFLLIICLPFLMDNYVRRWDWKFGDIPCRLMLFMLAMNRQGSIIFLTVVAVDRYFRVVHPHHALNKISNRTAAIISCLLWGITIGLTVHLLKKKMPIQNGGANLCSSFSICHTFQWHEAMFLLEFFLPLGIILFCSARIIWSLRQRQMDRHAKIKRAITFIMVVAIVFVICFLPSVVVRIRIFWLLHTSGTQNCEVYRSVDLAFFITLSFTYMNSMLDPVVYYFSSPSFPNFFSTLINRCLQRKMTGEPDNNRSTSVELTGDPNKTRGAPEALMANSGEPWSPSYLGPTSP

Work on `CCCCCn1c2nc(C(F)(F)F)[nH]c2c(=O)n2c(C)nnc12` [Example 1, 3-methyl-9-pentyl-7-(trifluoromethyl)-6,9-dihydro-5H-[1,2,4]triazolo[4,3-a]purin-5-one] yielded an IC50 (human HM74a [1]) of 20 nM and an EC50 (human HM74a [2]) of 80 nM.
In the case of `CCCCCn1c2nc(Br)[nH]c2c(=O)n2c(CCc3nc(Cc4ccncc4)no3)nnc12` [Example 77, 7-bromo-9-pentyl-3-{2-[3-(pyridine-4-ylmethyl)-1,2,4-oxadiazol-5-yl]ethyl}-6,9-dihydro-5H-[1,2,4]triazolo[4,3-a]purin-5-one], the IC50 (mature adipocytes) is reported as 37 nM.
In the case of `O=C1[C@H](CC[C@H](O)c2ccc(F)cc2)[C@@H](c2ccc(O)cc2)N1c1ccc(F)cc1` [Ezetimibe], the “maximal LDL reductions” value ([3]; co-formulated with a statin) is given as “exceed 60%” and the “lowers LDL” value ([3]; monotherapy) is given as 20%.
In the case of `O=C(O)c1cccnc1` [Nicotinic acid, nicotinic acid], the “lowering circulating plasma LDL” value ([3]; human, in vivo) is given as 16%, the lowering triglycerides ([3]; human, in vivo) is given as 38% and the “raising HDL levels” value ([3]; human, in vivo) is given as 20-30%.

— patent US8703783B2, “Purinone derivatives as HM74A agonists” (Incyte Corporation, priority 2006, dated 2014)
